Experimental findings from article PMC4156305, “Structure Driven Design of Novel Human Ether-A-Go-Go-Related-Gene Channel (hERG1) Activators” (PLoS ONE, 2014) are described below.

Common to all, as to assay type: cell-based
The target in one data set is T1, hERG1 (Homo sapiens, UniProt Q12809).
T1 construct: expressed in transfected cells; host or cells: HEK 293
Put plainly: Whole cell patch-clamp of hERG1 currents in transfected HEK 293 cells. Further details: Inactivation ΔV0.3: unit not given here. The note with it: for Deactivation Δλ/λcon: deactivation time constant relative to baseline; for Activation V1/2 (mV): shift in voltage-dependence of activation; for Amplitude I/Icon: tail current relative to baseline; for Inactivation ΔV0.3: shift in voltage-dependence of inactivation. The protocol:
(§1) Transfected HEK cells on glass cover slips were placed in a chamber mounted on a modified stage of an inverted microscope. The chamber was superfused at a rate of 2 mL/min with a normal external solution. The extracellular solution contained (in mM) NaCl 140, KCl 5.4, CaCl2 1, MgCl2 1, HEPES 5, glucose 5.5, pH 7.4, with NaOH. Micropipettes were pulled from borosilicate glass capillary tubes on a programmable horizontal puller (Sutter Instruments, Novato, CA). Standard patch-clamp methods were used to measure the whole cell currents of hERG1 mutants expressed in HEK 293 cells using the AXOPATCH 200B amplifier (Axon Instruments). Unless otherwise indicated, tail currents were recorded when the voltage was returned to −50 mV from +50 mV. Further details on electrophysiological methods are collected in Methods S1.
(§2) Electrophysiology Protocol:
(§3) The pipette solution contained the following (at mM concentration): KCl 10, K-aspartate 110, MgCl2 5, Na2ATP 5, EGTA 10, HEPES 5, and CaCl2 1. The solution was adjusted to pH 7.2 with KOH. The extracellular solution contained the following (at mM concentration): NaCl 140, KCl 5.4, CaCl2 1, MgCl2 1, HEPES 5, and glucose 5.5. The solution was adjusted to pH 7.4 with NaOH. For IKr measurements, the whole cell configuration of the patch clamp method was used. The series resistance was less than 7
(§4) MΩ. The data were sampled at 1 kHz. The holding potential was -80 mV. The activation of hERG tail currents was induced by depolarization to a range of potentials from +50 to -100 mV in 10 mV steps for 1 second. This was followed by repolarization to -100 mV for 1 second to record the tail currents.
(§5) -100 mV, a -120 mV 1 second pre-pulse was applied to completely close the hERG channels before subsequent depolarization. All of the tail currents reported in this manuscript represent dofetilide-sensitive currents. The inactivation of hERG was measured by a previously reported triple-pulse protocol5, 6. The holding potential was -80 mV. The hERG channel was first depolarized to +50 mV for 1 second. Recovery from inactivation was achieved using a short pulse (a 10 ms hyperpolarization) to -120 mV, followed by the application of test pulses from -100 to 0 mV for 1 second in 10 mV steps.
(§6) A voltage of -100 mV was selected because it was on the flat part of the inactivation-voltage relationship. The methods employed are identical to ones previously reported. […]

Another data set concerns the target T2, hERG1 E544L (Homo sapiens, UniProt Q12809, E544L).
T2 construct: expressed in transfected cells; host or cells: HEK 293
The experiment in a line: Whole cell patch-clamp of hERG1 E544L mutant. The note with it: 10 µM. The protocol:
as §1, §2, §3, §4, §5, §6
(In general: In patch-clamp work, channel activity is measured electrically.)

In data set [1] the test system is fetal mouse ventricular myocytes. Put plainly: Action potential recordings in neonatal (day 1) / fetal mouse ventricular myocytes. The note with it: 20 µM. On the procedure:
Action potentials were recorded from neonatal (day 1) mouse ventricular myocytes as previously reported. Although IKr has little physiologic importance to the action potential of the adult rodent heart, we previously reported that IKr is the dominant repolarizing current in day 1 neonatal myocytes, with little or no IKs. Thus, these neonatal cells are well suited to assess the physiologic relevance of blockade of IKr to the action potential characteristics. In contrast, to address the possibility that compounds inadvertently interact with other channels, action potentials were recorded from adult cardiac myocytes. Myocytes on glass coverslips were placed in a chamber mounted on a modified stage of an inverted microscope.

Where [2] appears, read: Conc. 2 µM, listed as MC-II-159c.
The mark [3] stands for this setting: Conc. 10 µM, listed as MC-I-153b.
Where [4] appears, read: Conc. 50 µM, listed as MC-I-153b.

Entries after “also recorded” stand apart in the source; their conditions may differ.

Regarding `C[C@H](NS(=O)(=O)c1ccc([N+](=O)[O-])cc1)C(=O)NC(=O)Nc1cc(C(F)(F)F)ccc1O` [Compound 14], at hERG1 (Conc. 2 µM), the “Deactivation Δλ/λcon” value was 0.4±, the “Activation V1/2 (mV)” value is −3±0.02 mV and the “Amplitude I/Icon” value came out at 0.93±0.01. At hERG1 (Conc. 50 µM), the “Deactivation Δλ/λcon” value was determined as 0.6±0.3, the “Activation V1/2 (mV)” value is reported as −7.7±3.0 mV, the “Inactivation ΔV0.3” value worked out at 2.5±3.5 and the “Amplitude I/Icon” value worked out at 0.39±0.04. Further, the “Amplitude I/Icon” value on hERG1 (Conc. 50 µM, listed as MC-I-169b) was “significantly more pharmacologic block”.
For the compound `C[C@H](NC(=O)c1ccc([N+](=O)[O-])cc1)C(=O)NC(=O)Nc1cc(C(F)(F)F)ccc1O` [Compound 7], at hERG1 (Conc. 20 µM), the “Deactivation Δλ/λcon” value came to 0.6±0.3, the “Activation V1/2 (mV)” value is recorded as −7±1.1 mV, the “Inactivation ΔV0.3” value is recorded as −3.5±4.5 and the “Amplitude I/Icon” value stood at 0.6±0.1.
The corresponding values for `COCOc1ccc(C(F)(F)F)cc1NC(=O)NC(=O)[C@H](C)NCc1ccc(C(F)(F)F)cc1` [Compound 10] are 0.5±0.03, −13.7±3.2 mV, −12.3±3.4 and 0.4±0.02.
On to `COCOc1ccc(C(F)(F)F)cc1NC(=O)NC(=O)[C@H](C)N(Cc1ccccc1)Cc1ccccc1` [Compound 17], for which, on hERG1 (Conc. 10 µM), the “Deactivation Δλ/λcon” value is given as 0.07±0.08, the “Activation V1/2 (mV)” value is recorded as −5±0.6 mV and the “Inactivation ΔV0.3” value is −1±0.6. Moreover, on hERG1 (Conc. 50 µM), the “Deactivation Δλ/λcon” value came to 0.25±0.18, the “Activation V1/2 (mV)” value is −2±0 mV, the “Inactivation ΔV0.3” value is “+4±0” and the “Amplitude I/Icon” value amounted to 0.95±0.03.
Regarding `COCOc1ccc(C(F)(F)F)cc1NC(=O)Oc1ccccc1` [Compound 22], on hERG1 (Conc. 50 µM), the “Deactivation Δλ/λcon” value is reported as −0.2±0.09, the “Activation V1/2 (mV)” value was −1.7±2.3 mV, the “Inactivation ΔV0.3” value came to 0±0 and the “Amplitude I/Icon” value was determined as 0.9±0.04.
As to `COCOc1ccc(C(F)(F)F)cc1NC(=O)NC(=O)[C@H](C)NC(=O)c1ccccc1` [Compound 11], at hERG1 (Conc. 20 µM), the “Deactivation Δλ/λcon” value was −0.1±0.2, the “Activation V1/2 (mV)” value is reported as −12.7±2.7 mV, the “Inactivation ΔV0.3” value was −1.5±1.5 and the “Amplitude I/Icon” value was 0.6±0.04.
For the compound `COCOc1ccc(C(F)(F)F)cc1NC(N)=O` [Compound 21], at hERG1 (Conc. 50 µM), the “Deactivation Δλ/λcon” value came out at 0.02±0.1, the “Activation V1/2 (mV)” value is reported as −1.3±2.4 mV, the “Inactivation ΔV0.3” value was 0.7±3.7 and the “Amplitude I/Icon” value was 0.9±0.04.
On to `C[C@H](NCc1ccc(Br)cc1)C(=O)NC(=O)Nc1cc(C(F)(F)F)ccc1O` [Compound 4], for which the “lower drug concentration at which effects on deactivation were still manifest” value at hERG1 is on record as approximately 2 µM. The entries for the “Deactivation Δλ/λcon” value at hERG1 (Conc. 2 µM), at hERG1 (setting [2]) and at hERG1 (Conc. 20 µM) were 0.25±0.02, “significantly prolonged deactivation” and 3.1±1.6, respectively. Besides, the “Activation V1/2 (mV)” value at hERG1 (Conc. 2 µM) is on record as −5±2 mV; at hERG1 (Conc. 20 µM) it was −33±14 mV. Also, the “Inactivation ΔV0.3” value at hERG1 (Conc. 2 µM) was −0.5±0.5; at hERG1 (Conc. 10 µM), “shifts voltage dependence to hyperpolarized potentials”; at hERG1 (Conc. 20 µM) it was −4.5±1.5. The “Amplitude I/Icon” value amounted to 0.76±0.14 at hERG1 (Conc. 2 µM); 0.76 at hERG1 (setting [2]); 0.6±0.07 at hERG1 (Conc. 20 µM); 0.6 on hERG1 (Conc. 20 µM, listed as MC-II-159c). For the same compound, the “response in amplitude of the tail current in E544L versus WT” value on hERG1 E544L is on record as “markedly diminished”. Also, the “pharmacologic responses (shift in voltage-dependence of activation, slowing of deactivation) in E544L versus WT” value at hERG1 E544L (listed as MC-II-159c) is “significantly and substantially less pharmacologic responses; also recorded: significantly and substantially reduced”. For the same compound, the “upstroke of the action potential, overshoot potential and excitability threshold” value in data set [1] is “affected the upstroke of the action potential, the overshoot potential and the excitability threshold”.
For the compound `O=C(Nc1ccccc1)C1C(=O)Nc2ccccc21` (stereo not shown) [Compound 24], at hERG1 (Conc. 50 µM), the “Deactivation Δλ/λcon” value came to 0.2±0.2, the “Activation V1/2 (mV)” value was −2.3±0.9 mV, the “Inactivation ΔV0.3” value came to 8±0 and the “Amplitude I/Icon” value amounted to 0.8±0.03.
With `CN(C(=O)c1cccc(C(F)(F)F)c1)c1ccccc1` [Compound 18], at hERG1 (Conc. 50 µM), the “Deactivation Δλ/λcon” value is on record as −0.2±0.05, the “Activation V1/2 (mV)” value stood at 3.3±0.3 mV, the “Inactivation ΔV0.3” value is on record as −11.7±7.3 and the “Amplitude I/Icon” value was 0.8±0.07.
With `C[C@H](NC(=O)c1ccccc1)C(=O)NC(=O)Nc1cc(C(F)(F)F)ccc1O` [Compound 6], on hERG1 (Conc. 20 µM), the “Deactivation Δλ/λcon” value was 0.8±0.1, the “Activation V1/2 (mV)” value is recorded as −3.7±0.7 mV, the “Inactivation ΔV0.3” value is reported as −2.5±1.5 and the “Amplitude I/Icon” value was found to be 0.7±0.02.
For `COCOc1ccc(C(F)(F)F)cc1NC(=O)NC(=O)[C@H](C)N` [Compound 16], at hERG1 (Conc. 10 µM), the “Deactivation Δλ/λcon” value is −0.07±0.1, the “Activation V1/2 (mV)” value is −7±2 mV and the “Amplitude I/Icon” value is recorded as 0.6±0.06. Moreover, at hERG1 (setting [3]), the “Activation V1/2 (mV)” value is reported as “shifts V1/2 of activation to hyperpolarized potentials” and the “Amplitude I/Icon” value turned out to be 0.6. Also, at hERG1 (Conc. 50 µM), the “Deactivation Δλ/λcon” value is 0.003±0.14, the “Activation V1/2 (mV)” value is −19±3 mV, the “Inactivation ΔV0.3” value is reported as −27±2 and the “Amplitude I/Icon” value was 0.3±0.02. Also, at hERG1 (setting [4]), the “Activation V1/2 (mV)” value is “left shifted the V1/2 of activation” and the “Amplitude I/Icon” value was 0.3.
As to `C[C@H](NCc1ccccc1)C(=O)NC(=O)Nc1cc(C(F)(F)F)ccc1O` [Compound 2], at hERG1 (Conc. 20 µM), the “Deactivation Δλ/λcon” value was determined as 0.6±0.4, the “Activation V1/2 (mV)” value was −14.5±5.5 mV, the “Inactivation ΔV0.3” value is recorded as −21±0.0 and the “Amplitude I/Icon” value came out at 0.4±0.02.
Turning to `COCOc1ccc(C(F)(F)F)cc1N` [Compound 20], on hERG1 (Conc. 5 µM), the “Deactivation Δλ/λcon” value worked out at 0.03±0.01, the “Activation V1/2 (mV)” value is reported as −2.5±0.5 mV and the “Inactivation ΔV0.3” value is recorded as 0±1. Moreover, on hERG1 (Conc. 100 µM), the “Deactivation Δλ/λcon” value was −0.06±0.2, the “Activation V1/2 (mV)” value is −3.3±1.3 mV, the “Inactivation ΔV0.3” value is reported as −1±0 and the “Amplitude I/Icon” value is recorded as 0.9±0.04.
